Results on four compounds are retold here after US20260076959A1, “COMBINATION PRODUCT, SALT, AND USE THEREOF IN TREATING NEURODEGENERATIVE DISEASES OR DISORDERS” (SHANGHAI HENLIUS BIOTECH, INC., priority 2023, published 2026).

Where a name gives a salt, the structure may show the parent alone.

In assay [1] the test system is SH-sy5y cells. Description: Cell viability of hydrogen peroxide-induced SH-sy5y cells (CellTiter-Glo luminescence). Format: cell-based. As to the method: Neuroblastoma SH-sy5y cells (purchased from the Cell Bank of the Chinese Academy of Sciences) were cultured in a complete medium (DMEM+10% FBS+1% PS) in a cell incubator at 37° C. with 5% CO2. The experiment was divided into 11 groups in total: • Group 1 (control): SH-sy5y cells • Group 2 (model): SH-sy5y cells+hydrogen peroxide • Group 3: SH-sy5y cells+hydrogen peroxide+compound Y (100 μM) • Group 4: SH-sy5y cells+hydrogen peroxide+compound T (100 μM) • Group 5: SH-sy5y cells+hydrogen peroxide+compound B (100 μM) • Group 6: SH-sy5y cells+hydrogen peroxide+compound N (100 μM) • Group 7: SH-sy5y cells+hydrogen peroxide+compound combination Y+T (100 μM+100 μM) • Group 8: SH-sy5y cells+hydrogen peroxide+compound combination B+N (100 μM+100 μM) • Group 9: SH-sy5y cells+hydrogen peroxide+compound combination PB+T (500 μM+200 μM) • Group 10: SH-sy5y cells+hydrogen peroxide+YT salt (100 μM) • Group 11: SH-sy5y cells+DMSO
Neuroblastoma SH-sy5y cells were plated at 1×10^4 cells/well in a complete medium (DMEM+10% FBS+1% PS) and cultured in a cell incubator at 37° C. with 5% CO2 for 24 h, followed by the addition of the corresponding compounds. After 24 h of incubation, hydrogen peroxide was added to stimulate the cells for 1 h, with the final concentration of hydrogen peroxide being 350 µM. Subsequently, […] CellTiter-Glo® (CTG) reagent was added, and the mixture was shaken for 2 min. Then, the luminescence signal values were measured, which could characterize the cell viability. […] Pharmacology/toxicologyNDAreviewandevaluation, Application number: 2166600Orig1s000, Food and Drug Administration. doi: pink.pharmaintelligence.informa.com/-/media/supporting-documents/pink-sheet/2022/11/relyvrio_nonclinical.pdf?rev=d27109bf35c040d4a78f73144d132917&hash=414BB5B4473A21ECE0231375EB1C0341).

Assay [2] relates to CD4-positive T cells. Briefly: Proliferation of CD4-positive T cells from anti-CD3/CD28-stimulated PBMCs (CellTrace, flow cytometry). The following applies: 72 h; for proliferation of CD4-positive T cells compared to control group (DMSO): 100 μM (Y+T: 100 μM+100 μM). The assay is classed as cell-based, human. From the text: (§1) It has been reported that in ALS, Th cells are described as major players in inflammation and disease progression. […] Similarly, CD8 T cell infiltration was also observed in the spinal cord and brain of ALS patients. (Elise Liu, et al., Neuroinflammation in Amyotrophic Lateral Sclerosis and Frontotemporal Dementia and the Interest of Induced Pluripotent Stem Cells to Study Immune Cells Interactions With Neurons, Front Mol Neurosci. 2021 Dec. 14; 14:767041. doi: 10.3389/fnmol.2021.767041.) To observe the inhibitory effects of the compounds, the compound combination, or the salt of the present disclosure on immune cell infiltration or proliferation, their effects in inhibiting the proliferation of CD4-positive and CD8-positive T cells were further analyzed. First, a certain amount of human peripheral blood mononuclear cells (PBMCs) were incubated with 5 μM CellTrace cell proliferation assay reagent in an incubator at 37° C. with 5% CO2 in the dark for 20 min. Then, 1.5×10^5 CellTrace-stained PBMCs were seeded in a 96-well U-bottom plate and treated with Anti-CD3/CD28 antibody-coupled magnetic beads at a ratio of 1:1 (cell count:magnetic bead count) to induce differentiation into T cells. Subsequently, various compounds at corresponding concentrations (compound Y: 100 μM; compound T: 100 μM; compound combination Y+T: 100 µM compound Y+100 μM compound T; YT salt: 100 μM; control group: […] (100 μM)) were co-incubated with the above-treated cells in the incubator at 37° C. with 5% CO2 for 72 h, followed by analysis by a flow cytometer. Specifically, the test cells were first treated with a Live/dead dye (633 nm, 1:1000 dilution) at 4° C. for 30 min to distinguish dead cells from live cells. […] After appropriate washing, the above-stained cells were analyzed by a flow cytometer at different wavelengths. […] Proliferation of CD4-positive and CD8-positive T cells was determined by the fluorescence of CellTrace dye.

Assay [3] deals with CD8-positive T cells. Description: Proliferation of CD8-positive T cells from anti-CD3/CD28-stimulated PBMCs (CellTrace, flow cytometry). Format: cell-based, human. The following applies: 72 h; for proliferation of CD8-positive T cells compared to control group (DMSO): 100 μM (Y+T: 100 μM+100 μM).
Description: as §1
Background: In flow cytometry, cells or beads pass a laser one at a time.

The subject of assay [4] is SOD1G93A mutant ALS model mice. Briefly: Onset of disease, severe conditions and survival in SOD1G93A ALS mouse model. Format: in vivo. As to the method:
The therapeutic effect of the YT salt on the survival status of ALS animals was evaluated in SOD1^G93A transgenic mice (B6SJL-Tg (SOD1*G93A) 1/cyagen). Sixteen female and fourteen male B6SJL-Tg(SOD1*G93A) 1/cyagen mice were selected and randomly divided into 2 groups (7 males+8 females/group) according to sex and body weight, namely a model group (control) and a YT salt group (treatment group). The YT salt was intragastrically administered at a dose of 496 mg/kg once daily. The administration began on day 66 of mouse age. Body weight changes were monitored, animal status and symptom severity were evaluated, and individual survival periods were recorded. Statistics on the severity of animal symptoms included the time to the first onset of disease and the time to the first observation of severe conditions in the animals. […] In this study, “severe condition” was defined as a state in which the animal was completely paralyzed and unable to move freely, but still alive; if the animal died directly without going through a “paralysis” stage after the onset of disease, the death was considered the occurrence of a severe condition. The survival period was statistically defined as the survival time of the animal at the endpoint of the test (day 130). The hazard ratio was calculated using the Log-rank test method.

Assay [5] deals with MPTP-induced Parkinson's disease mouse model. Briefly: MPTP-induced Parkinson's disease mouse model (grip strength, rotarod, TH immunohistochemistry). The following applies: for reduction in TH-positive cells in the substantia nigra region: P<0.0001. Format: in vivo, C57BL/6 mice. The protocol:
Sixty male C57BL/6 mice were selected and randomly divided into 5 groups (12 mice/group), namely a sham surgery group (normal control), a model group (model control), an L-DOPA group (positive drug control, 40 mg/kg), a low-dose YT salt treatment group (167.5 mg/kg), and a high-dose YT salt treatment group (248 mg/kg). The mice were intraperitoneally injected with MPTP at a dose of 30 mg/kg for 5 consecutive days for modeling. The YT salt was intragastrically administered twice daily (with an interval of 7-8 h between two administrations) for 13 consecutive days. L-DOPA was administered twice daily (with an interval of 7-8 h between two administrations) for 8 consecutive days. The amelioration effect of the YT salt on the motor function of the MPTP-induced Parkinson's disease mice was evaluated by behavioral indicators such as a grip strength test and a rotarod test. Histopathological examination was performed on the animals to evaluate the protective effect of the YT salt on dopaminergic neurons in the MPTP-induced Parkinson's disease mice.
(Falling from the rotarod earlier than controls is read as motor impairment.)

Assay [6] concerns 6-OHDA-induced Parkinson's disease rats. Description: 6-OHDA-induced Parkinson's disease rat model (grid walking test). Format: in vivo, SD rats. The following applies: 248 mg/kg intragastrically once daily, 6 weeks; P<0.05 vs model. The protocol:
Forty-eight male SD rats were selected and divided into 4 groups (12 rats/group), namely a sham surgery group (normal control), a model group (model control), an istradefylline group (istradefylline, as a positive drug control, 10 mg/kg), and a YT salt treatment group (248 mg/kg). The Parkinson's disease model was established by injecting […] of 6-OHDA into the right intracranial medial forebrain bundle (MFB) of rats. After modeling, istradefylline and the YT salt were administered intragastrically once daily for 6 consecutive weeks, and a grid walking test was performed at the end of the 6-week administration period to evaluate the disease progression in the rats.

The test system of assay [7] is ALS. As to conditions: in vivo; cited from earlier work.
[8] abbreviates: 496 mg/kg intragastrically once daily.

Take `COc1cc2cc3[n+](cc2cc1OC)CCc1cc2c(cc1-3)OCO2` [YT salt]: the “effects in improving cell viability compared to compound T, compound B, combination B+N and combination PB+T” value in assay [1] (Y+T 100 μM+100 μM, YT salt 100 μM, hydrogen peroxide-induced) is “significantly superior effects in improving cell viability”. For the same compound, the “proliferation of CD4-positive T cells compared to control group (DMSO)” value in assay [2] is “significantly inhibited”. Moreover, in assay [2] (100 μM), the “inhibitory effect on proliferation of CD4-positive T cells compared to compound T and compound U (UDCA)” value is “significantly superior”. In addition, the “proliferation of CD8-positive T cells compared to control group (DMSO)” value in assay [3] is on record as “significantly inhibited”. Besides, the “inhibitory effect on proliferation of CD8-positive T cells compared to compound T and compound U (UDCA)” value in assay [3] (100 μM) is recorded as “significantly superior”. For the same compound, in assay [4] (setting [8]), the median onset time is given as 109 days, the “median time to severe condition occurrence” value was 117 days and the “onset time (earliest onset in group)” value is > 90 days of mouse age. For the same compound, the “time of first onset vs model group (Log-rank)” value in assay [4] (496 mg/kg intragastrically once daily from day 66 of age, P=0.0802) is given as “no statistical difference”. In addition, the “hazard ratio for disease onset” value in assay [4] (496 mg/kg intragastrically once daily, Log-rank) is 0.5716. Moreover, in assay [4] (496 mg/kg intragastrically once daily, P<0.01), the “survival period vs model group” value is given as “significantly superior”. Besides, the “incidence of severe conditions vs model group” value in assay [4] (496 mg/kg intragastrically once daily, P<0.05) is on record as “significantly lower”. Moreover, the “median onset time longer than in the model group” value in assay [4] (496 mg/kg intragastrically once daily, model group 102 days) was found to be 7 days. Further, in assay [4] (496 mg/kg, Log-rank), the death hazard ratio was 0.3212 and the “hazard ratio for severe conditions” value is 0.45. Moreover, in assay [4] (496 mg/kg, endpoint day 130), the endpoint survival rate is recorded as 53.333% and the median survival period entry is “the number of dead individuals had not exceeded half by the endpoint of the test”. In addition, the “endpoint severe condition rate” value in assay [4] (496 mg/kg, endpoint of the test day 130) stood at 66.667%. Further, the “hazard ratio for disease onset, times lower than model group” value in assay [4] (496 mg/kg, model group 1.749) is recorded as “about 3 times”. Besides, in assay [4] (496 mg/kg, model group 2.222), the “hazard ratio for severe conditions, times lower than model group” value is recorded as “about 5 times”. In addition, the “death hazard ratio, times lower than model group” value in assay [4] (496 mg/kg, model group 3.113) is approximately 10 times. Further, the “median time to severe condition occurrence longer than in the model control group” value in assay [4] (496 mg/kg, model group 109 days) is “about 8 days”. Besides, the “apoptosis of dopaminergic neurons in the substantia nigra region and striatal region” value in assay [5] (YT salt 167.5 mg/kg twice daily) is “significantly inhibit”. The “MPTP-induced decrease in animal grip strength” value in assay [5] (YT salt high dose 248 mg/kg intragastrically twice daily, 13 days, P<0.01 vs model) is reported as “significantly ameliorate”. For the same compound, the “reduction in TH-positive cells in the substantia nigra region” value (“reduction in TH-positive cells” below) in assay [5] (YT salt high dose 248 mg/kg twice daily) is “significant inhibition”. In addition, the “loss of TH-positive neurons (TH immunohistochemical staining in the striatum)” value in assay [5] (YT salt high dose 248 mg/kg twice daily, P<0.01) is recorded as “significant inhibition”. Also, the “MPTP-induced reduction in time on the rod (rotarod test)” value in assay [5] (YT salt high dose 248 mg/kg twice daily, P<0.05 vs model) is recorded as “significant amelioration effect”. Further, the “reduction in TH-positive cells” value in assay [5] (YT salt low dose 167.5 mg/kg twice daily) was “significant inhibition”. For the same compound, in assay [6], the “foot fault rate in grid walking test” value is reported as “significant reduction” and the “number of foot faults in grid walking test” value is “significant reduction”.

Take `CC1=NN(c2ccccc2)C(=O)C1` [Evadarone]: in assay [7], the “revised ALS functional rating scale (ALSFRS-R) score” value is recorded as “improves”.

In the case of `N[C@@H](Cc1ccc(O)c(O)c1)C(=O)O` [L-DOPA, reference compound], the “MPTP-induced decrease in animal grip strength” value in assay [5] (L-DOPA 40 mg/kg twice daily, 8 days, P<0.001 vs model) is given as “significantly ameliorate”. For the same compound, in assay [5] (L-DOPA 40 mg/kg twice daily), the “reduction in TH-positive cells” value is on record as “significant inhibition”.

As to `COc1cc2cc3[n+](cc2cc1OC)CCc1cc2c(cc1-3)OCO2.[Cl-]` [compound Y], the “effect in improving cell viability compared to compound B monotherapy” value in assay [1] (100 μM each, hydrogen peroxide-induced) is on record as “superior”. For the same compound, the “effect in improving cell viability compared to the model” value in assay [1] (100 μM, 24 h incubation, then hydrogen peroxide 1 h, P<0.0001 vs model) is reported as “excellent effect in improving cell viability”. Also, the “proliferation of CD4-positive T cells compared to control group (DMSO)” value in assay [2] was “significantly inhibited”. The “proliferation of CD8-positive T cells compared to control group (DMSO)” value in assay [3] is listed as “significantly inhibited”.
